Laboratory results reported in patent EP0958817A1, “COMPOSITION CONTAINING DIARYLALKANE DERIVATIVE AS THE ACTIVE INGREDIENT FOR TREATING OR PREVENTING PANCREATITIS” (SANKYO COMPANY LIMITED, priority 1996, dated 1998).
Structures can show the parent of a compound that is named as a salt.

Experiments:
[1] = test system: pancreatitis induced by choline-deficient ethionine supplemented diet; experiment: Inhibitory activity against pancreatitis induced by choline-deficient ethionine supplemented diet (CDE diet); serum amylase activity as index of pancreatitis; format: in vivo, ICR female mouse; conditions: serum 64 h after start of CDE diet, twice a day, 6 times in total
Protocol: Pancreatitis of a mouse was induced by choline-deficient ethionine supplemented diet (CDE diet). A modified method of Lombardi et al [Lombardi et al, Am. J. Pathol., 79, 465-480 (1975)] was carried out. Briefly, the pancreatitis was induced by feeding an ICR female mouse (Charles River Japan, Inc. three-weeks old) choline deficient diet to which 0.5% (w/w) DL-ethionine was added (CDE diet). Sixty four hours after the feeding with the CDE diet, approximately 0.3 ml of the blood was collected from the heart of the mouse under anesthesia with ether. The collected blood was allowed to stand at room temperature for 2 hours to coagulate, followed by centrifugation (at 12,000 rpm for 10 minutes), to obtain serum. The amylase activity in the serum was measured by an amylase activity assay kit (Amylase B-Test Wako, product of Wako Pure Chemical Industries, Ltd.) and was designated as an index of pancreatitis. The test compound suspended in a 0.5% (w/v) tragacanth solution was administered to mice one hour before the feeding of the CDE diet and was administered twice a day, 6 times in total. The control group was fed with the CDE diet to induce pancreatitis but the test compounds were not administered to the control group. The normal group was not fed with the CDE diet but was fed with ordinary food.

[2] = test system: cerulein-induced pancreatitis; experiment: Inhibitory activity against cerulein-induced pancreatitis; serum amylase activity as index of pancreatitis; format: in vivo, Wistar rats; conditions: Table 6, serum 3 h after final cerulein (20 µg/kg i.p., four times), control group 48.7
Protocol: Induction of experimental acute pancreatitis in rats was carried out by a modified method of Otsuki et al [Otsuki et al, Dig. Dis. Sci., 35, 242-250 (1990)]. Briefly, cerulein (20 µg/kg) was intraperitoneally administered to Wistar rats (Japan SLC, weight: about 200 g) every one hour, four times in total. Three hours after the final administration, the blood was collected from the jugular vein of the rat under anesthesia with ether. The collected blood was allowed to stand at room temperature for 2 hours to coagulate, followed by centrifugation (at 12,000 rpm for 10 minutes), to obtain serum. The amylase activity of the serum was measured using an amylase activity assay kit (Amylase B-Test Wako, product of Wako Pure Chemical Industries, Ltd.) and was designated as an index of pancreatitis. The test compound suspended in a 0.5% (w/v) tragacanth solution was orally administered 30 minutes before the first injection of the cerulein. The control group is defined as a group in which pancreatitis was induced, but to which the test compounds were not administered.

[3] = Table 4, dose 10 mg/kg, control group 64.7, normal group 6.6
[4] = Table 4, dose 30 mg/kg, control group 64.7, normal group 6.6

COc1cc(CCc2cc(F)ccc2OCC[C@@H]2C[C@@H](O)CN2C)ccc1F [Preparation Example 2, (2R,4R)-2-[2-[4-Fluoro-2-[2-(4-fluoro-3-methoxypheny)ethyl]phenoxy]ethyl]-4-hydroxy-1-methylpyrrolidine hydrochloride]
Amylase activity [1, 3]: 53.7 IU/ml | Amylase activity [1, 4]: 31.2 IU/ml

COc1cccc(CCc2ccccc2OCC[C@@H]2C[C@@H](O)CN2C)c1.Cl [Preparation Example 18, (2R,4R)-4-Hydroxy-2-[2-[2-[2-(3-methoxyphenyl)ethyl]phenoxy]ethyl]-1-methylpyrrolidine hydrochloride]
Amylase activity ([1]; Table 5, dose 10 mg/kg, control group 48.0, normal group 8.7): 25.7 IU/ml | Amylase activity ([1]; Table 5, dose 30 mg/kg, control group 48.0, normal group 8.7): 21.8 IU/ml

CCCCCCCCCCCC(=O)O[C@@H]1C[C@@H](CCOc2ccccc2CCc2cccc(OC)c2)N(C)C1.Cl [Preparation Example 3, (2R,4R)-4-Lauroyloxy-2-[2-[2-[2-(3-methoxyphenyl)ethyl]phenoxy]ethyl]-1-methylpyrrolidine hydrochloride]
Amylase activity ([1]; Table 3, dose 10 mg/kg, control group 71.7, normal group 7.4): 35.0 IU/ml | Amylase activity ([1]; Table 3, dose 30 mg/kg, control group 71.7, normal group 7.4): 32.1 IU/ml | Amylase activity ([2]; dose 10 mg/kg orally 30 minutes before first cerulein): 43.6 IU/ml | Amylase activity ([2]; dose 30 mg/kg orally 30 minutes before first cerulein): 34.9 IU/ml | Amylase activity ([2]; dose 100 mg/kg orally 30 minutes before first cerulein): 31.7 IU/ml

COc1cc(CCc2ccccc2OCC[C@@H]2C[C@@H](O)CN2C)ccc1F.Cl [Preparation Example 4, (2R,4R)-2-[2-[2-[2-(4-Fluoro-3-methoxyphenyl)ethyl]phenoxy]ethyl]-4-hydroxy-1-methylpyrrolidine hydrochloride]
Amylase activity [1, 3]: 48.4 IU/ml | Amylase activity [1, 4]: 30.5 IU/ml
